Key:
[1] = system: splenocytes; experiment: Inhibitory activity on cell proliferation in splenocytes (CCK-8 analysis); assay type: cell-based, C57BL/6 mouse; settings: Mus musculus, Splenocyte, Concanavalin A 5 µg/mL, 72 hours, read-out: Inhibitory Activity on Cell Proliferation (%) (Mean±SD)
[2] = system: splenocytes; experiment: NO scavenging activity in Concanavalin A-treated splenocytes (Griess assay); assay type: cell-based, C57BL/6 mouse; settings: Mus musculus, Splenocyte, Concanavalin A 5 µg/mL, 72 hours, read-out: NO Scavenging Activity (%) (Mean±SD)
Method: (§1) A spleen was isolated from an 8-week-old C57BL/6 mouse, and splenocytes were isolated using a physical method.
(§2) The separated splenocytes were diluted to a concentration of 5×10^6 cells/mL in a RPMI 1640 medium including 10% FBS, 100 U/mL of penicillin and 100 µg/mL of streptomycin, and the diluted splenocytes were dispensed at 500 µL/well into a 48-well plate and 100 µL/well into a 96-well plate, and cultured for 72 hours in an incubator. The splenocytes were treated with Concanavalin A (5 µg/mL) when dispensed to induce an immune response, and herein, […] of the pharmaceutical composition including the compound according to each of the Examples was also added thereto. After 72 hours, the supernatant was collected, and the level of remaining NO was checked through a Griess assay, and calculated by the following Equation 4.

[3] = system: IFN-γ; experiment: IFN-γ reduction activity in Concanavalin A-treated splenocytes (quantitative ELISA); assay type: cell-based, C57BL/6 mouse; settings: Mus musculus, Splenocyte, Concanavalin A 5 µg/mL, 72 hours, read-out: IFN-γ Reduction Activity (%) (Mean±SD)
Method: as §1, §2
NO is one of important inflammatory mediators, and may increase the level of inflammatory cytokine. Concanavalin A (5 µg/mL), which induces an immune response in splenocytes, and the compound of each of Examples were treated in a concentration-dependent manner to check whether the level of IFN-γ, a representative inflammatory cytokine, was reduced. The supernatant was collected 72 hours after the treatment, and analyzed using a quantitative enzyme-linked immunosorbent assay (Quantitative-ELISA).

[4] = system: Raw 264.7 cell line; experiment: NO scavenging activity in LPS-treated immune cells (Griess reagent); assay type: cell-based; settings: Mus musculus, RAW264.7, Raw 264.7, LPS 500 ng/mL, 24 hours, read-out: NO Scavenging Activity (%) (Mean±SD)
Method: Raw 264.7 cell line was seeded in a 48-well plate at a density of 8×10^4 cells/well, and cultured at 37°C in a DMEM medium including 10% FBS, 100 U/mL of penicillin and 100 µg/mL of streptomycin.
The medium was cultured overnight, and then replaced with a fresh medium including 10 µM of the pharmaceutical composition sensitive to nitrogen monoxide including the compound of each of Examples 1 to 30 and 500 ng/mL of LPS, and the fresh medium was cultured again for another 24 hours.
Lastly, in order to measure the amount of NO produced, the amount of NO2^- present in the cell culture medium was measured using a Griess reagent (sulfanilamide, N-1-naphthylethylenediamine dihydrochloride). Specifically, 100 µL of a Griess reagent was mixed with a mixture solution of 50 µL of the cell culture medium and 50 µL of PBS. The mixture solution was reacted for 10 minutes in a well plate, and absorbance thereof at 540 nm was measured.

[5] = target: JAK 1 (Homo sapiens, UniProt P23458); experiment: JAK Human TK kinase enzymatic radiometric assay (Eurofins), JAK 1; settings: value close to 100 indicates low JAK activity of the compound
Sequence of JAK 1 (P23458 whole entry): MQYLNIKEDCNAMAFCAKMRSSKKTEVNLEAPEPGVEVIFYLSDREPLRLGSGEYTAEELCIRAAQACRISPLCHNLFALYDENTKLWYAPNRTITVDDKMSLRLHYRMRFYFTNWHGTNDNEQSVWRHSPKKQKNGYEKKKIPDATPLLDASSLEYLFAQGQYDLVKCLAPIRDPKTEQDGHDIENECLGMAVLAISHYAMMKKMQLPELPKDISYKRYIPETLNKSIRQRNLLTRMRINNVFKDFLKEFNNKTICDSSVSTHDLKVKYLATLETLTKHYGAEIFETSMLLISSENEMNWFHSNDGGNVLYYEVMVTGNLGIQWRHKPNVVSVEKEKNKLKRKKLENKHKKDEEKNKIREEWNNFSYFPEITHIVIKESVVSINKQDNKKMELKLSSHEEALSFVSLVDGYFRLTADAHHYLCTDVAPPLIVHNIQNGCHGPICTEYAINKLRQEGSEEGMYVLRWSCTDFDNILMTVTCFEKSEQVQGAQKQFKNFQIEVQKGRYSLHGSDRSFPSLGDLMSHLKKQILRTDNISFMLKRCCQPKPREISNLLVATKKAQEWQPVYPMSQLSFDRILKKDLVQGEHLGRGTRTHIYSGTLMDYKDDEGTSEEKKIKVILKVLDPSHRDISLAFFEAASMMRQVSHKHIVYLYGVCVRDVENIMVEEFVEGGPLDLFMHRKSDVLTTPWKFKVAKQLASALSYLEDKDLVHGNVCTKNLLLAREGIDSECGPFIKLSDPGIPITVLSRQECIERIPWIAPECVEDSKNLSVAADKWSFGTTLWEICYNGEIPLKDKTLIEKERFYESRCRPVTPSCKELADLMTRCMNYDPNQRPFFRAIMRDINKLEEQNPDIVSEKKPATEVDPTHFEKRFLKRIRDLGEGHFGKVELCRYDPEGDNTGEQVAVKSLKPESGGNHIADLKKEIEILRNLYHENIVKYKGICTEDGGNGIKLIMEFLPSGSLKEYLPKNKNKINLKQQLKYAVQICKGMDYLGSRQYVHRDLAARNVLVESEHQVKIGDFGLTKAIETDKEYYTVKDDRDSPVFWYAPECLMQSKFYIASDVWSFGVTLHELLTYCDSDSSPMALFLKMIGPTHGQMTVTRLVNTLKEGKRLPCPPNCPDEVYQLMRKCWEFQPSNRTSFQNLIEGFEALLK
Excerpt: For the compounds of the Examples, JAK activity of each of the compounds was verified using the JAK Human TK Kinase Enzymatic Radiometric Kinase Profiler Assay service provided by Eurofins Scientific.
The activity was verified after inducing a reaction at the JAK 1, 2 and 3 active sites using radioactively labeled ATP.

[6] = DAF-2 assay of NO scavenging activity (NO donor SNAP); assay type: biochemical; settings: DAF-2 10 µM, SNAP 100 µM, PBS, 3 hours, 37°C
Method: NO scavenging activity of the pharmaceutical composition sensitive to nitrogen monoxide including the compound according to each of Examples 1 to 22, 29 to 31, and 33 to 35 was evaluated through a DAF-2 assay.
Specifically, a reagent stock solution was made using DMSO (dimethyl sulfoxide) in order to prepare 5 mM of DAF-2, 100 mM of SNAP and 5 mM of the compound synthesized in each of the Examples, and for the reaction, the solution was added to a PBS (phosphate buffered saline) solution so that DAF-2, SNAP and the compound had final concentrations of 10 µM, 100 µM and the concentration of Table 1, respectively, followed by a reaction for 3 hours in a 37°C incubator.

[7] = DAF-2 assay of NO scavenging activity without and with H2O2 (ROS); assay type: biochemical; settings: SNAP 100 µM, DAF-2 10 µM, 3 hours, 37°C; for NO Scavenging Activity (%) (Mean±SD) With H2O2: H2O2 1 mM
Method: The pharmaceutical composition sensitive to nitrogen monoxide including the compound according to each of Examples 23 to 28 and 32 may have scavenging activity for reactive oxygen species (ROS). NO scavenging activity of the pharmaceutical composition was evaluated through a DAF-2 assay.
Specifically, to a 100 µM solution of SNAP, the compound synthesized in each of the Examples was added at a concentration of the following Table 2, and reacted. Then 10 µM of DAF-2 was added thereto, followed by a reaction for 3 hours in a 37°C incubator.
Additionally, a stock solution of H2O2 (10 M) was added to the reaction solution so that SNAP and H2O2 had final concentrations of 100 µM and 1 mM, respectively. Then, the compound synthesized in each of the Examples was added thereto at a concentration of the following Table 11, followed by a reaction in the same manner, and NO scavenging activity was calculated by Equation 1.

Row | Structure (SMILES) | inhibition at 10 µM [1] [%] | activity at 10 µM [2] [%] | activity at 10 µM [3] [%] | activity at 10 µM [4] [%] | JAK 1 Activity ([5]; 0.1 nM) | JAK 1 Activity ([5]; 1 nM) | JAK 1 Activity ([5]; 10 nM) | JAK 1 Activity ([5]; 100 nM) | NO Scavenging Activity (%) (Mean±SD) ([6]; compound 1 µM) | NO Scavenging Activity (%) (Mean±SD) ([6]; compound 5 µM) | NO Scavenging Activity (%) (Mean±SD) ([6]; compound 10 µM) | NO Scavenging Activity (%) (Mean±SD) Without H2O2 ([7]; compound 1 µM) | NO Scavenging Activity (%) (Mean±SD) With H2O2 ([7]; compound 1 µM) | NO Scavenging Activity (%) (Mean±SD) Without H2O2 ([7]; compound 5 µM) | NO Scavenging Activity (%) (Mean±SD) With H2O2 ([7]; compound 5 µM) | NO Scavenging Activity (%) (Mean±SD) Without H2O2 ([7]; compound 10 µM) | NO Scavenging Activity (%) (Mean±SD) With H2O2 ([7]; compound 10 µM)
1 | Cc1ccc(N)c(NC(=O)n2ccc3c(N(C)[C@H]4CN(C(=O)CC#N)CC[C@H]4C)ncnc32)c1 [Example 2, N-(2-amino-5-methylphenyl)-4-(((3R,4R)-1-(2-cyanoacetyl)-4-methylpiperidin-3-yl)(methyl)amino)-7H-pyrrolo[2,3-d]pyrimidine-7-carboxamide] | 90.4 ± 4.69 | 94.3 ± 0.27 | 95.2 ± 0.39 | 78.1 ± 0.21 | – | – | – | – | – | – | – | – | – | – | – | – | –
2 | Cc1ccc(NC(=O)n2ccc3c(N(C)[C@H]4CN(C(=O)CC#N)CC[C@H]4C)ncnc32)c(N)c1 [Example 3, N-(2-amino-4-methylphenyl)-4-(((3R,4R)-1-(2-cyanoacetyl)-4-methylpiperidin-3-yl)(methyl)amino)-7H-pyrrolo[2,3-d]pyrimidine-7-carboxamide] | 76.2 ± 2.45 | 98.1 ± 0.34 | 99.1 ± 0.61 | 95.4 ± 0.11 | – | – | – | – | – | – | – | – | – | – | – | – | –
3 | C[C@@H]1CCN(C(=O)CC#N)C[C@@H]1N(C)c1ncnc2c1ccn2C(=O)Nc1cc(N(C)C)ccc1N [Example 5, N-(2-amino-5-(dimethylamino)phenyl)-4-(((3R,4R)-1-(2-cyanoacetyl)-4-methylpiperidin-3-yl)(methyl)amino)-7H-pyrrolo[2,3-d]pyrimidine-7-carboxamide] | 60.5 ± 5.48 | 94.1 ± 0.52 | 96.1 ± 0.45 | 84.1 ± 0.01 | – | – | – | – | – | – | – | – | – | – | – | – | –
4 | C[C@@H]1CCN(C(=O)CC#N)C[C@@H]1N(C)c1ncnc2c1ccn2C(=O)Nc1cc2c(cc1N)n(C)c(=O)n2C [Example 10, N-(6-amino-1,3-dimethyl-2-oxo-2,3-dihydro-1H-benzo[d]imidazol-5-yl)-4-(((3R,4R)-1-(2-cyanoacetyl)-4-methylpiperidin-3-yl)(methyl)amino)-7H-pyrrolo[2,3-d]pyrimidine-7-carboxamide] | 76.3 ± 2.45 | 77 ± 0.87 | 93 ± 2.99 | 93.7 ± 0.11 | – | – | – | – | – | – | – | – | – | – | – | – | –
5 | Cc1ccc(NC(=O)N(C)CCN(C)C(=O)n2ccc3c(N(C)[C@H]4CN(C(=O)CC#N)CC[C@H]4C)ncnc32)c(N)c1 [Example 15, N-(2-(3-(2-amino-4-methylphenyl)-1-methylureido)ethyl)-4-(((3R,4R)-1-(2-cyanoacetyl)-4-methylpiperidin-3-yl) (methyl)amino)-N-methyl-7H-pyrrolo[2,3-d]pyrimidine-7-carboxamide] | 22.6 ± 6.36 | 31.6 ± 0.16 | 86.5 ± 0.29 | 54 ± 0.59 | 102 | 90 | 99 | 66 | – | – | – | – | – | – | – | – | –
6 | Cc1ccc(N)c(NC(=O)N(C)CCN(C)C(=O)n2ccc3c(N(C)[C@H]4CN(C(=O)CC#N)CC[C@H]4C)ncnc32)c1 [Example 16, N-(2-(3-(2-amino-5-methylphenyl)-1-methylureido)ethyl)-4-(((3R,4R)-1-(2-cyanoacetyl)-4-methylpiperidin-3-yl) (methyl)amino)-N-methyl-7H-pyrrolo[2,3-d]pyrimidine-7-carboxamide] | 25 ± 5.67 | 27.1 ± 1.2 | 81.4 ± 0.5 | 49.3 ± 0.23 | 101 | 104 | 98 | 59 | – | – | – | – | – | – | – | – | –
7 | C[C@@H]1CCN(C(=O)CC#N)C[C@@H]1N(C)c1ncnc2c1ccn2C(=O)N(C)CCN(C)C(=O)Nc1cc2c(cc1N)n(C)c(=O)n2C [Example 22, N-(2-(3-(6-amino-1,3-dimethyl-2-oxo-2,3-dihydro-1H-benzo[d]imidazol-5-yl)-1-methylureido)ethyl)-4-(((3R,4R)-1-(2-cyanoacetyl)-4-methylpiperidin-3-yl) (methyl)amino)-N-methyl-7H-pyrrolo[2,3-d]pyrimidine-7-carboxamide] | 19.4 ± 0.21 | 45.9 ± 0.51 | – | 31.3 ± 0.88 | 91 | 97 | 84 | 77 | 14.83 ±6.51 | 36.86 ±2.09 | 48.96 ±3.12 | – | – | – | – | – | –
8 | C[C@@H]1CCN(C(=O)CC#N)C[C@@H]1N(C)c1ncnc2c1ccn2C(=O)N(C)CCN(C)C(=O)Nc1cc2c(cc1NC(=O)OCc1ccc(B(O)O)cc1)n(C)c(=O)n2C [Example 24, (4-((((6-(3-(2-(4-(((3R,4R)-1-(2-cyanoacetyl)-4-methylpiperidin-3-yl)(methyl)amino)-N-methyl-7H-pyrrolo[2,3-d]pyrimidine-7-carboxamido)ethyl)-3-methylureido)-1,3-dimethyl-2-oxo-2,3-dihydro-1H-benzo[d]imidazol-5-yl)carbamoyl)oxy)methyl)phenyl)boronic acid] | 67.2 ± 4.67 | 78.3 ± 0.5 | 95.5 ± 0.15 | 9.8 ± 0.64 | – | – | – | – | – | – | – | 16.43 ±4.86 | 34.66 ±3.80 | 27.84 ±7.68 | 43.58 ±6.00 | 40.54 ±3.96 | 53.52 ±3.09
9 | C[C@@H]1CCN(C(=O)CC#N)C[C@@H]1N(C)c1ncnc2c1ccn2C(=O)Nc1ccccc1NC(=O)OCc1ccc(B2OC(C)(C)C(C)(C)O2)cc1 [Example 25, 4-(4,4,5,5-tetramethyl-1,3,2-dioxaborolan-2-yl)benzyl (2-(4-(((3R,4R)-1-(2-cyanoacetyl)-4-methylpiperidin-3-yl) (methyl)amino)-7H-pyrrolo[2,3-d]pyrimidine-7-carboxamido)phenyl) carbamate] | 81.4 ± 7.94 | 100 | 98.7 ± 0.04 | 63.2 ± 0.56 | – | – | – | – | – | – | – | – | – | – | – | 42.36 ±1.91 | 89.96 ±0.19

From patent EP4741395A1, “NOVEL COMPOUND SENSITIVE TO NITROGEN MONOXIDE AND PHARMACEUTICAL COMPOSITION COMPRISING SAME” (Omniamed Co. Ltd, priority 2023, dated 2025)
